Among the data in PubChem BioAssay (NCI) are GI50 and TGI values, retold here.

Some test systems named below: MDA-MB-231 breast; A498 renal; U251 CNS; UACC-257 melanoma; NCI-H23 lung; K-562 leukemia; SN12C renal; HS 578T breast; LOX IMVI melanoma; MOLT-4 leukemia.
Holding throughout (test): NCI-60 cell line screen, 48 h

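Cells were grown in 96-well plates and exposed to each compound for 48 hours at five concentrations; endpoints were interpolated linearly between bracketing concentrations, or set to the highest concentration if not reached. GI50 is the concentration that inhibits growth by half. TGI: total growth inhibition.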 A value given as a limit tells only on which side of the number the result lay.

In the case of `OCCCCC#Cc1ccccc1C#Cc1ccccc1C(F)(F)F`, the GI50 with MDA-MB-231 breast was 2.83 µM; in the experiment with A498 renal, 5.79 µM; with U251 CNS it was 4.63 µM; with UACC-257 melanoma, 17.7 µM; in the experiment with NCI-H23 lung, 12.1 µM; with K-562 leukemia, 1.09 µM. Moreover, the GI50 is 12.2 µM in the experiment on SN12C renal, 11.8 µM in the experiment with HS 578T breast, 4.99 µM in the experiment with LOX IMVI melanoma and 2.63 µM in the experiment with MOLT-4 leukemia. In addition, the TGI with MDA-MB-231 breast was 12.4 µM; in the experiment on A498 renal, 19.8 µM; with U251 CNS, 17.9 µM; in the experiment with UACC-257 melanoma, 31.9 µM; with NCI-H23 lung, 27.8 µM; in the experiment on K-562 leukemia, 13.9 µM. For the same compound, the TGI was determined as 26.5 µM with SN12C renal, 37.1 µM in the experiment with HS 578T breast, 18.5 µM in the experiment with LOX IMVI melanoma and 12.9 µM in the experiment on MOLT-4 leukemia.
On to `S=C(Nc1ccc(Cl)cc1)Nc1ccc(-c2nc3ccccc3[nH]2)cc1`, for which the GI50 in the experiment on MDA-MB-231 breast is 3.14 µM; in the experiment with A498 renal, 23.6 µM; in the experiment with U251 CNS, 5.06 µM; with UACC-257 melanoma, 14.7 µM; in the experiment on NCI-H23 lung, 3.89 µM; with K-562 leukemia, 5.2 µM. Besides, the GI50 was 6.55 µM in the experiment on SN12C renal, 6.49 µM in the experiment with HS 578T breast and 5.05 µM in the experiment on LOX IMVI melanoma. For the same compound, the TGI was 12.8 µM in the experiment on MDA-MB-231 breast; 55.5 µM in the experiment on A498 renal; 18.1 µM with U251 CNS; greater than 52 µM with UACC-257 melanoma; 17.5 µM with NCI-H23 lung; 31.3 µM in the experiment on K-562 leukemia. Also, the TGI turned out to be 23.7 µM in the experiment on SN12C renal, 60.6 µM with HS 578T breast and 11.7 µM in the experiment with LOX IMVI melanoma.
For the compound `COc1cc2c(/C=C3/C(=O)Nc4ccccc43)c(Cl)n(Cc3ccccc3[N+](=O)[O-])c2cc1C`, the GI50 in the experiment with MDA-MB-231 breast is 3.85 µM; with A498 renal, 12.4 µM; with U251 CNS, 11.2 µM; in the experiment on UACC-257 melanoma it was 17.7 µM; in the experiment on NCI-H23 lung it was 7.77 µM; with SN12C renal, 9.42 µM. The GI50 with HS 578T breast is 15 µM; in the experiment with LOX IMVI melanoma, 9.17 µM; with MOLT-4 leukemia, 5.51 µM. Also, the TGI with MDA-MB-231 breast was found to be 31.3 µM; in the experiment with A498 renal it was 32.6 µM; with U251 CNS it was 25.1 µM; with UACC-257 melanoma it was 85.5 µM; in the experiment on NCI-H23 lung, 22.3 µM; with SN12C renal it was 56.1 µM. In addition, the TGI in the experiment with HS 578T breast is 94 µM; in the experiment with LOX IMVI melanoma, 24 µM; with MOLT-4 leukemia it was 70.3 µM.
In the case of `CN(C)CCCNC(=O)c1cc(NC(=O)c2cc(NC(=O)c3cc(NC(=O)CCc4c[nH]c5ccccc45)cn3C)cn2C)cn1C`, the GI50 in the experiment with MDA-MB-231 breast, in the experiment with U251 CNS, in the experiment on UACC-257 melanoma, in the experiment with NCI-H23 lung, in the experiment with K-562 leukemia and in the experiment on SN12C renal was greater than 100 µM each time. For the same compound, the GI50 in the experiment on HS 578T breast is 0.0701 µM; in the experiment on LOX IMVI melanoma it was greater than 100 µM; in the experiment on MOLT-4 leukemia, greater than 100 µM. The TGI in the experiment with MDA-MB-231 breast, in the experiment on U251 CNS, in the experiment on UACC-257 melanoma, in the experiment with NCI-H23 lung, with K-562 leukemia and in the experiment with SN12C renal was greater than 100 µM in each case. Besides, the TGI with HS 578T breast, in the experiment with LOX IMVI melanoma and in the experiment with MOLT-4 leukemia was greater than 100 µM in each case.
`Cc1cc(S(=O)(=O)Nc2nnc(-c3ccccc3)c(-c3ccccc3)n2)c(SCc2ccccc2)cc1Cl`: the GI50 in the experiment on MDA-MB-231 breast is 20.2 µM; with A498 renal, 19.8 µM; with U251 CNS it was 21.7 µM; in the experiment on UACC-257 melanoma, 28.5 µM; in the experiment with NCI-H23 lung, 22.6 µM; with K-562 leukemia, 29.6 µM. The GI50 was 19.1 µM with HS 578T breast, 26.2 µM in the experiment on LOX IMVI melanoma and 15 µM in the experiment with MOLT-4 leukemia. The TGI in the experiment on MDA-MB-231 breast is 41.9 µM; with A498 renal, 39.1 µM; in the experiment on U251 CNS it was 50.1 µM; in the experiment with UACC-257 melanoma, 70.1 µM; in the experiment with NCI-H23 lung, 48.1 µM; in the experiment with K-562 leukemia, greater than 100 µM. The TGI in the experiment with HS 578T breast stood at 52.8 µM; with LOX IMVI melanoma, 50.2 µM; in the experiment with MOLT-4 leukemia it was 36.8 µM.
In the case of `O=C1C(=O)c2ccccc2C(O)=C1C(CCc1ccccc1)C1=C(O)c2ccccc2C(=O)C1=O`, the TGI with MDA-MB-231 breast was greater than 100 µM; in the experiment with A498 renal, greater than 100 µM; with U251 CNS, greater than 100 µM; in the experiment on UACC-257 melanoma, 66.7 µM; in the experiment with NCI-H23 lung it was greater than 100 µM; with SN12C renal, greater than 100 µM. Further, the TGI in the experiment on HS 578T breast and in the experiment on LOX IMVI melanoma was greater than 100 µM each time.
`C[C@]12CC[C@@H]3c4ccc(O)cc4CC[C@H]3[C@@H]1CC[C@@H]2NS(=O)(=O)Cc1ccc(Cl)cc1`: the GI50 with MDA-MB-231 breast was 1.75 µM; with A498 renal, 1.29 µM; with U251 CNS, 3.33 µM; in the experiment on UACC-257 melanoma, 2.59 µM; in the experiment with NCI-H23 lung, 2.76 µM; in the experiment with K-562 leukemia, 2.99 µM. Further, the figures for the GI50 in the experiment with SN12C renal, in the experiment with HS 578T breast and in the experiment on MOLT-4 leukemia were 1.7 µM, 2.4 µM and 2.62 µM, respectively. The TGI amounted to 4.54 µM in the experiment on MDA-MB-231 breast; 3.87 µM in the experiment with A498 renal; 11.8 µM with U251 CNS; 8.08 µM with UACC-257 melanoma; 10.8 µM in the experiment on NCI-H23 lung; 21.3 µM in the experiment with K-562 leukemia. The TGI in the experiment with SN12C renal was 3.36 µM; in the experiment with HS 578T breast, 7.46 µM; with MOLT-4 leukemia it was 31.3 µM.
`O=C(Oc1ccc(CCl)cc1)c1ccccc1`: the GI50 was 0.149 µM with MDA-MB-231 breast; 0.221 µM in the experiment on A498 renal; 0.138 µM in the experiment on U251 CNS; 0.196 µM in the experiment with UACC-257 melanoma; 0.322 µM in the experiment with NCI-H23 lung; 0.121 µM with HS 578T breast. Further, the GI50 with LOX IMVI melanoma is 0.158 µM; with MOLT-4 leukemia, 0.188 µM. Further, the TGI with MDA-MB-231 breast was 0.311 µM; in the experiment on A498 renal, 1.83 µM; with U251 CNS it was 0.268 µM; in the experiment on UACC-257 melanoma it was 0.503 µM; in the experiment with NCI-H23 lung it was 1.15 µM; in the experiment on HS 578T breast, 0.438 µM. The TGI turned out to be 0.305 µM in the experiment on LOX IMVI melanoma and 0.538 µM in the experiment with MOLT-4 leukemia.
